Source: US20150328183A1, “PHARMACEUTICAL COMPOSITION AND USE FOR APPLYING 7,7''-DIMETHOXYAGASTISFLAVONE IN INHIBITING TUMOR METASTASIS” (NATIONAL CHIAO TUNG UNIVERSITY, priority 2014, published 2015)

How the values were obtained:
B16F10 cells = assay: Anti-metastatic activity in mice bearing B16F10 tumors (tumor volume); format: in vivo; details: C57BL/6 mice with B16F10 tumors, 10 mg/kg and 50 mg/kg DMGF injected once every 2 to 3 days
Protocol: At least 3 8-week-old C57BL/6 mice (female) were i.v. injected with 1×10^6 B16F10 cells. Mice bearing tumors with more than 30 mm^3 were injected with PBS, 10 mg/kg DMGF and 50 mg/kg DMGF once every 2 to 3 days. […] That is, with reference to the result of example 5, pharmaceutical composition with DMGF indeed inhibits tumor cell migration, thus inhibiting tumor metastasis.

TNF-α = assay: LPS-induced TNF-α secretion by mouse splenocytes (ELISA); format: cell-based; details: 1 μg/ml LPS, 1.25 μg/ml DMGF, 72 hours; group without DMGF up to 200 pg/ml
Protocol: 1×10^6 mouse splenocyte suspension was seeded in 24-well culture plate supplemented with 1 μg/ml lipopolysaccharide (LPS) for inducing the immune cells of mouse splenocyte secreting TNF-α, and 0, 0.3125, 0.625, 1.25 μg/ml DMGF to each group. The mouse splenocyte were further incubated in 37° C. incubator for 72 hours. The culture medium was collected and tested for TNF-α concentration by ELISA kit for detecting TNF-α.
With the use of increased DMGF dose level, the lower the TNF-α concentration. For example, mouse splenocyte treated with 1.25 μg/ml DMGF secreted TNF-α concentration fell to 60 pg/ml. With reference to the result of example 6, pharmaceutical composition with DMGF has the ability to inhibit immune cells secreting TNF-α to inhibit inflammation. Since inflammation is related to improving angiogenesis and invasion, migration or other pathological effects of tumor cells, pharmaceutical composition with DMGF has the ability to inhibit inflammation, thus inhibiting tumor metastasis.

Aspergillus flavus = details: cited from earlier work
[1] = tested on: B16F10 mouse melanoma cells; assay: Transwell (matrigel-coated) migration assay for metastasis inhibition; format: cell-based; details: 1 μg/ml DMGF, 4 hours, 8 μm film coated with matrigel, compared to the group without DMGF (100%)
Protocol: B16F10 mouse melanoma cells were maintained in 1% antibiotics of Dulbecco's modified Eagle's medium (DMEM; Gibco/Invitrogen, Carlsbad, Calif., USA) supplemented with heat-inactivated 10% fetal bovine serum (Gibco/Invitrogen, Carlsbad, Calif., USA). Antibiotic were preferably penicillin/streptomycin/amphotericin. Cell suspension (3×10^4) were treated with or without 1 μg/ml DMGF in the upper well of a transwell plate. The well without DMGF was used as a control group of experiment. DMEM cell culture medium was added into the upper and lower wells, and the lower well was further added fetal bovine serum, and then maintained in the incubator under 37° C. In other embodiment, B16F10 cell suspension was allowed to incubate in the 4 or 6 upper wells of transwell plate to comduct second repeat or duplicate tests, which is not for limited sense of present invention.
The bottom side of the upper well, which is between the upper well and the lower well, includes a transparent film. The present example applied 8 μm (coated with matrigel) transparent films for tumor metastasis test. […] The cells on the top of the filter were removed with a cotton swab and migrated cells on the underside were fixed with methanol, stained with 50 μg/ml propidium iodide and counted with a fluorescence microscope. […]

[2] = tested on: Matrix metalloproteases-2 (MMP2) expression in B16F10 cells; assay: MMP2 RNA expression by real-time PCR; format: cell-based, mouse; details: 1 μg/ml DMGF, 0 hour group defined as 1 times
Protocol: Culturing condition of B16F10 cells with tissue culture techniques is the same as example 2. B16F10 cell suspension was incubated in at least three plates, two of which were added biflavonoid DMGF (final concentration 1 μg/ml) and set back to 37° C. incubator and incubating for 12 and 24 hours, respectively. The culture medium and additional compound were sucked, and then the plate was washed with PBS. B16F10 cells were collected with trypsin-EDTA. And the third well was processes without DMGF, colleting B16F10 cells according to the above-mentioned method. Then total B16F10 cellular RNA was extracted with TRIzol (Invitrogen Life Technologies, Carlsbad, Calif., USA) and reverse-transcribed into cDNA using the extracted RNA template. The cDNA was further a template for real-time polymerase chain reaction (Real-time PCR). The forward primer and the reverse primer of MMP2 were [NT] and [NT], repectively, thus quantified the MMP2 expression level in the above-mentioned time period of control group and experiment group of the present example. In detail, reverse-transcription PCR was treated with SuperScript First-Strand system (Invitrogen Life Technologies). […] While the MMP2 expression level of “0 hour” group is defined as 1 times, the MMP2 expression level of “12 hours” group and “24 hours” group are both calculated according to the “0 hour” group.

[3] = tested on: SVEC4-10 mouse vascular endothelial cells; assay: Polymerization of fibrous actin (Phallotoxin/DAPI staining); format: cell-based; details: SVEC4-10 cells, 16 ng/ml VEGF, 1 μg/ml DMGF, 3 to 4 hours
Protocol: Tissue culture technology for culturing SVEC4-10 mouse vascular endothelial cells can be referred to the culturing method of B16F10 in example 2, and is not repeated here. SVEC4-10 cell suspension (3×10^4) were incubated in at least two plates and treated with 16 ng/ml VEGF (Upstate Inc., Lake Placid, N.Y., USA) medium in the two 96-well plate, and one of the plate was further added with 1 μg/ml DMGF as an experiment group. After adding the culture medium and the above-mentioned compound, SVEC4-10 cells were incubated in 37° C. incubator for 3 to 4 hours and then dyed with diamidino-phenyl-indole (DAPI) and Phallotoxin, respectively. Diamidino-phenyl-indole can be combined with double-stranded DNA to label the position of nucleus. Phallotoxin capable of combining with fibrous actin is often used as the dye for observing the polymerization of fibrous actin. After dyeing, the polymerization of fibrous actin was observed under 40 magnification microscopic lens.
“A” (filaments or spot) in FIG.3 marks the structure of fibrous actin, and “B” (circle) in FIG. 3 marks the position of nucleus. […] Polymerization of fibrous actin is correlated with cell migration in which polymerization of fibrous actin happens. Cell migration is the early step of tumor metastasis.

SMILES: COc1cc2oc(-c3ccc(O)cc3)cc(=O)c2c(O)c1-c1c(OC)cc(O)c2c(=O)cc(-c3ccc(O)cc3)oc12 [DMGF, 7,7″-Dimethoxyagastisflavone]
- tumor volume versus PBS-treated mouse (B16F10 cells): significantly smaller
- TNF-α concentration secreted by mouse splenocyte (TNF-α): 60 pg/mL
- inhibition of aflatoxin secretion (Aspergillus flavus): inhibiting Aspergillus flavus secreting aflatoxin
- reduction in the capacity of B16F10 cells to migrate through the membrane of transwell chambers [1]: about 65%
- MMP2 RNA expression level relative to 0 hour group ([2]; 12 hours): 0.5 times
- MMP2 RNA expression level relative to 0 hour group ([2]; 24 hours): 0.3 times
- polymerization of fibrous actin [3]: multiple dots without polymerization of fibrous actin
